Among the data in patent US6916933B2, “4-pyridinyl-n-acyl-l-phenylalanines” (Hoffman-La Roche Inc., priority 1999, dated 2005) are IC50 values, retold here.

In assay [1] the target is T1, VLA-4 (α4β1 integrin) binding to immobilized VCAM-1 (Homo sapiens, UniProt P05556+P13612).
T1 construct: followed by 10 μl of Ramos cell-derived VLA-4; endogenous in cells; host or cells: Ramos cells (VLA-4 preparation derived from the cells)
The assay can be described thus: VLA-4/VCAM-1 Screening Assay (solid-phase, dual antibody ELISA). Particulars: Ramos cell-derived VLA-4, recombinant human VCAM-1 coated plates, 1 mM MnCl2. On the procedure: VLA-4/VCAM-1 Screening Assay
VLA-4 antagonist activity, defined as ability to compete for binding to immobilized VCAM-1, was quantitated using a solid-phase, dual antibody ELISA. VLA-4 (α4β1 integrin) bound to VCAM-1 was detected by a complex of anti-integrin β1 antibody: HRP-conjugated anti-mouse IgG: chromogenic substrate (K-Blue). Initially, this entailed coating 96 well plates (Nunc Maxisorp) with recombinant human VCAM-1 (0.4 μg in 100 μl PBS), sealing each plate and then allowing the plates to stand at 4° C. for ^˜18 hr. […] On the day of assay, all plates were washed twice with VCAM Assay Buffer (200 μl/well of 50 mM Tris-HCl, 100 mM NaCl, 1 mM MnCl2, 0.05% Tween 20; pH 7.4). Test compounds were dissolved in 100% DMSO and then diluted 1:20 in VCAM Assay Buffer supplemented with 1 mg/mL BSA (i.e., final DMSO=5%). A series of 1:4 dilutions were performed to achieve a concentration range of 0.005 nM-1.563 μM for each test compound. 100 μl per well of each dilution was added to the VCAM-coated plates, followed by 10 μl of Ramos cell-derived VLA-4. These plates were sequentially mixed on a platform shaker for 1 min, incubated for 2 hr at 37° C., and then washed four times with 200 μl/well VCAM Assay Buffer. 100 μl of mouse anti-human integrin β1 antibody was added to each well (0.6 μg/mL in VCAM Assay Buffer+1 mg/mL BSA) and allowed to incubate for 1 hr at 37° C. At the conclusion of this incubation period, all plates were washed four times with VCAM Assay Buffer (200 μl/well). A corresponding second antibody, HRP-conjugated goat anti-mouse IgG (100 μl per well @ 1:800 dilution in VCAM Assay Buffer+1 mg/mL BSA), was then added to each well, followed by a 1 hr incubation at room temperature and concluded by three washes (200 μl/well) with VCAM Assay Buffer. Color development was initiated by addition of 100 μl K-Blue per well (15 min incubation, room temp) and terminated by addition of 100 μl Red Stop Buffer per well. All plates were then read in a UV/V is spectrophotometer at 650 nM. Results were calculated as % inhibition of total binding (i.e., VLA-4+VCAM-1 in the absence of test compound).
The results are provided in the following Table I (A=IC50<1 nM, B=IC50<10 nM): […]
On the technique in general: An ELISA detects its analyte on a solid surface through an enzyme-linked reagent.

The target in assay [2] is T2, cell-surface VLA-4 (α4β1 integrin) on Ramos cells binding to immobilized VCAM-1 (Homo sapiens, UniProt P05556+P13612).
T2 construct: Ramos cells bearing cell-surface VLA-4; endogenous in cells; host or cells: Ramos cells (VLA-4); VCAM-1 partner made in CHO cells
T2 sequence (P13612 34-1032): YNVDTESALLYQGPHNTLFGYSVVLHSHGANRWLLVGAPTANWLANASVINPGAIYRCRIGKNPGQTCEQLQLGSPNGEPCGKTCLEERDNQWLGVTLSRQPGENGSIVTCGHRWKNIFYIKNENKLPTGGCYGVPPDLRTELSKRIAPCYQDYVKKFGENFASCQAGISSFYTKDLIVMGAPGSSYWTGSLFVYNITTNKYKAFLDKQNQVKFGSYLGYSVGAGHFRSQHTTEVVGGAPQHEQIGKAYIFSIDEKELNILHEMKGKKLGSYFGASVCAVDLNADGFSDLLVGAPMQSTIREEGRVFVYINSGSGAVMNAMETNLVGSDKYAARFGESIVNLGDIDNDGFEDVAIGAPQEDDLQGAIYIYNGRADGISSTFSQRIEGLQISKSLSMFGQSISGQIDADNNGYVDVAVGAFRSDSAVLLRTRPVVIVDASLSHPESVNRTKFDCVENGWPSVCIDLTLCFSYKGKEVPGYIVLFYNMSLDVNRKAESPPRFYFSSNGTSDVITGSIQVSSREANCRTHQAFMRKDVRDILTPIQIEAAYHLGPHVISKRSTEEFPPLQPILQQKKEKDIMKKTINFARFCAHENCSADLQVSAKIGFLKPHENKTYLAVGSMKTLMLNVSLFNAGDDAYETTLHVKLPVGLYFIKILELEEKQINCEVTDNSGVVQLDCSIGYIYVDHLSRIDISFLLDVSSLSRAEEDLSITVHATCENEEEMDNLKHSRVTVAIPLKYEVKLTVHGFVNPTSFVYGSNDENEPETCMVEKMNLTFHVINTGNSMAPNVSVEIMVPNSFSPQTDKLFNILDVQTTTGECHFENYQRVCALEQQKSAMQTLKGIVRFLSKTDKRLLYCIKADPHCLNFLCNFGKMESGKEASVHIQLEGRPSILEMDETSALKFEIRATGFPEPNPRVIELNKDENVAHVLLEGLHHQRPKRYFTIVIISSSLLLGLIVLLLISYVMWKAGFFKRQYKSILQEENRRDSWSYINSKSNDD
T2 sequence (P05556 21-798): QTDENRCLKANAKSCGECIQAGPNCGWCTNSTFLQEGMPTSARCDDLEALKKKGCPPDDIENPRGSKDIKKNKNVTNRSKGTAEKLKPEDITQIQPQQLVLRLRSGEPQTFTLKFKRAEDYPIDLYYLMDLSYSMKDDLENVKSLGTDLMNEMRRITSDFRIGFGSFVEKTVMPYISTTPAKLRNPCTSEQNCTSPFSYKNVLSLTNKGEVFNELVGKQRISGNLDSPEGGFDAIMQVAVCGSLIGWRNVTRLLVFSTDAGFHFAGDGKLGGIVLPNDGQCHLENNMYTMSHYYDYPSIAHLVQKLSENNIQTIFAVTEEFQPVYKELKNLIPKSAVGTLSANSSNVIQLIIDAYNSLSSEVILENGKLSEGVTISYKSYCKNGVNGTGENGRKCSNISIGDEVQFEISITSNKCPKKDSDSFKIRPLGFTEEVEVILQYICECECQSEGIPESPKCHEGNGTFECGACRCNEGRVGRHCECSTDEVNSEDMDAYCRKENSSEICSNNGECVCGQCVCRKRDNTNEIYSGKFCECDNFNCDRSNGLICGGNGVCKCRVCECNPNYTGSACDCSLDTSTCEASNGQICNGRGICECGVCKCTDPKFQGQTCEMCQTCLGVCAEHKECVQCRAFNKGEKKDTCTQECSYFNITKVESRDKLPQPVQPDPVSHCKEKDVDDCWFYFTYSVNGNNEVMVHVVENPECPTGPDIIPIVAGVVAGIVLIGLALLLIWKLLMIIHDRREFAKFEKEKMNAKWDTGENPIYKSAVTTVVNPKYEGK
The experiment in a line: Ramos (VLA-4)/VCAM-1 Cell-Based Screening Assay (cell adhesion). The following applies: Calcein-AM labeled Ramos cells, VCAM-1 coated plates. On the procedure:
Ramos (VLA-4)/VCAM-1 Cell-Based Screening Assay Protocol
Soluble recombinant human VCAM-1 (mixture of 5- and 7-Ig domain) was purified from CHO cell culture media by immunoaffinity chromatography and maintained in a solution containing 0.1 M Tris-glycine (pH 7.5), 0.1 M NaCl, 5 mM EDTA, 1 mM PMSF, […] NaN3 and 10 μg/mL leupeptin. Calcein-AM was purchased from Molecular Probes Inc.
VLA-4 (α4β1 integrin) antagonist activity, defined as ability to compete with cell-surface VLA-4 for binding to immobilized VCAM-1, was quantitated using a Ramos-VCAM-1 cell adhesion assay. Ramos cells bearing cell-surface VLA-4, were labeled with a fluorescent dye (Calcein-AM) and allowed to bind VCAM-1 in the presence or absence of test compounds. A reduction in fluorescence intensity associated with adherent cells (% inhibition) reflected competitive inhibition of VLA-4 mediated cell adhesion by the test compound.
Initially, this entailed coating 96 well plates (Nunc Maxisorp) with recombinant human VCAM-1 (100 ng in 100 μl PBS), sealing each plate and allowing the plates to stand at 4° C. for ≈18 hr. The VCAM-coated plates were subsequently washed twice with 0.05% Tween-20 in PBS, and then blocked for 1 hr (room temperature) with 200 μl of Blocking Buffer (1% BSA/0.02% thimerosal) to reduce non-specific binding. Following the incubation with Blocking Buffer, plates were inverted, blotted and the remaining buffer aspirated. Each plate was then washed with 300 μl PBS, inverted and the remaining PBS aspirated.
Test compounds were dissolved in 100% DMSO and then diluted 1:25 in VCAM Cell Adhesion Assay Buffer (4 mM CaCl2, 4 mM MgCl2 in 50 mM TRIS-HCl, pH 7.5) (final DMSO=4%). A series of eight 1:4 dilutions were performed for each compound (general concentration range of 1 nM-12,500 nM). 100 μl/well of each dilution was added to the VCAM-coated plates, followed by 100 μl of Ramos cells (200,000 cells/well in 1% BSA/PBS). Plates containing test compounds and Ramos cells were allowed to incubate for 45 min at room temperature, after which 165 μl/well PBS was added. Plates were inverted to remove non-adherent cells, blotted and 300 μL/well PBS added. Plates were again inverted, blotted and the remaining buffer gently aspirated. 100 μl Lysis Buffer (0.1% SDS in 50 mM TRIS-HCl, pH 8.5) was added to each well and agitated for 2 min on a rotary shaking platform. The plates were then read for fluorescence intensity on a Cytofluor 2300 (Millipore) fluorecence measurement system (excitation=485 nm, emission=530 nm).
The results are provided in the following Table II (A=IC50<100 nM, B=IC50<10000 nM, C=IC50<5,000 nM): […]

Each structure is given as a SMILES string. A value given as a limit tells only on which side of the number the result lay.

By IC50 is commonly meant the point on the concentration scale where inhibition reaches its midpoint.

T1 sequence (P13612 34-1032): as the sequence (P13612 34-1032) above
T1 sequence (P05556 21-798): as the sequence (P05556 21-798) above

For the compound `Cc1cccc(Cl)c1C(=O)N[C@@H](Cc1ccc(-c2cc(Cl)cn(C)c2=O)cc1)C(=O)O` [Example 8, N-[(2-chloro-6-methylphenyl)carbonyl]-4-(5-chloro-1-methyl-2-oxo-3-pyridinyl)-L-phenylalanine], the half-maximal inhibitory concentration (IC50) in assay [1] was less than 1 nM; in assay [2], less than 10000 nM.
On to `COCCC1(C(=O)N[C@@H](Cc2ccc(-c3cc(Cl)cn(C)c3=O)cc2)C(=O)O)CCCC1` [Example 10, 4-(5-chloro-1-methyl-2-oxo-3-pyridinyl)-N-[[1-(2-methoxyethyl)cyclopentyl]carbonyl]-L-phenylalanine], for which the IC50 in assay [1] was less than 10 nM; in assay [2] it was less than 10000 nM.
The like results for `Cc1cccc(Cl)c1C(=O)N[C@@H](Cc1ccc(-c2cc(Cl)cn(Cc3ccccc3)c2=O)cc1)C(=O)O` [Example 15, 4-(1-Benzyl-5-chloro-2-oxo-3-pyridinyl)-N-[(2-chloro-6-methylphenyl)carbonyl]-L-phenylalanine] were, in that order, less than 10 nM and less than 5000 nM.
As to `COCCC1(C(=O)N[C@@H](Cc2ccc(-c3cc(Cl)cn(Cc4ccccc4)c3=O)cc2)C(=O)O)CCCC1` [Example 17, 4-(1-Benzyl-5-chloro-2-oxo-3-pyridinyl)-N-[[1-(2-methoxyethyl)cyclopentyl]carbonyl]-L-phenylalanine], the 50% inhibitory concentration (IC50) in assay [1] was less than 10 nM.
Regarding `COc1ccc(Br)c(C(=O)N[C@@H](Cc2ccc(-c3cccn(C)c3=O)cc2)C(=O)O)c1` [Example 24, N-[(2-bromo-5-methoxyphenyl)carbonyl]-4-(1-methyl-2-oxo-3-pyridinyl)-L-phenylalanine], the IC50 in assay [1] was less than 1 nM; in assay [2], less than 10000 nM.
The like results for `COc1ccc(Br)c(C(=O)N[C@@H](Cc2ccc(-c3cc(Br)cn(C)c3=O)cc2)C(=O)O)c1` [Example 28, N-[(2-bromo-5-methoxyphenyl)carbonyl]-4-(5-bromo-1-methyl-2-oxo-3-pyridinyl)-L-phenylalanine] were, in that order, less than 1 nM and less than 5000 nM.
